The source made the active and inactive calls. No cut-off for these calls is given here.
What was measured:
[1] = Acute toxicity in female Kunming mouse assessed as histopathological changes in heart at 250 mg/kg administered via gavage by H and E staining based analysis; format: organism-based; conditions: in vivo, po
[2] = Acute toxicity in male Kunming mouse assessed as histopathological changes in lung at 250 mg/kg administered via gavage by H and E staining based analysis; format: organism-based; conditions: in vivo, po
[3] = Acute toxicity in male Kunming mouse assessed as histopathological changes in liver at 250 mg/kg administered via gavage by H and E staining based analysis; format: organism-based; conditions: in vivo, po
BV-2 [4] = assay: Antiinflammatory activity in LPS induced mouse BV-2 cells assessed as inhibition of NO production by Griess reagent based assay; format: functional, cell-based
BV-2 [5] = assay: Antiinflammatory activity in LPS induced mouse BV-2 cells assessed as downregulation of TNF-alpha mRNA expression level preincubated for 2 hrs followed by LPS addition and measured after 24 hrs by qRT-PCR analysis; format: functional, cell-based; conditions: dose 5-10 µM, time 26.0 hrs
BV-2 [6] = assay: Antiinflammatory activity in LPS induced mouse BV-2 cells assessed as downregulation of IL-6 mRNA expression level preincubated for 2 hrs followed by LPS addition and measured after 24 hrs by qRT-PCR analysis; format: functional, cell-based; conditions: dose 5-10 µM, time 26.0 hrs
BV-2 [7] = assay: Antiinflammatory activity in LPS induced mouse BV-2 cells assessed as downregulation of IL-1beta mRNA expression level preincubated for 2 hrs followed by LPS addition and measured after 24 hrs by qRT-PCR analysis; format: functional, cell-based; conditions: dose 5-10 µM, time 26.0 hrs
BV-2 [8] = assay: Antiinflammatory activity in LPS-induced mouse BV-2 cells assessed as reduction in NO production preincubated for 2 hrs followed by LPS addition and measured after 24 hrs by Griess reagent based analysis; format: functional, cell-based; conditions: dose 5-10 µM, time 26.0 hrs
BV-2 [9] = assay: Antiinflammatory activity in LPS-induced mouse BV-2 cells assessed as downregulation of iNOS mRNA expression level at 5 to 10 uM preincubated for 2 hrs followed by LPS addition and measured after 6 hrs by qRT-PCR analysis; format: functional, cell-based; conditions: dose 5-10 µM, time 8.0 hrs
BV-2 [10] = assay: Antiinflammatory activity in LPS-induced mouse BV-2 cells assessed as downregulation of COX2 mRNA expression level at 5 to 10 uM preincubated for 2 hrs followed by LPS addition and measured after 6 hrs by qRT-PCR analysis; format: functional, cell-based; conditions: dose 5-10 µM, time 8.0 hrs
BV-2 [11] = assay: Antiinflammatory activity in LPS-induced mouse BV-2 cells assessed as downregulation of iNOS protein expression level preincubated for 2 hrs followed by LPS addition and measured after 24 hrs by Western blot analysis; format: functional, cell-based; conditions: dose 5-10 µM, time 26.0 hrs
[12] = target: T1, Signal transducer and activator of transcription 1 (Mus musculus) (UniProt P42225); assay: Inhibition of STAT1 phosphorylation at Tyr701 residue in LPS-induced mouse BV-2 cells at 5 to 10 uM preincubated for 2 hrs followed by LPS addition and measured after 3 hrs by Western blot analysis; format: cell-based; conditions: dose 5-10 µM, time 5.0 hrs
T1 sequence (whole entry): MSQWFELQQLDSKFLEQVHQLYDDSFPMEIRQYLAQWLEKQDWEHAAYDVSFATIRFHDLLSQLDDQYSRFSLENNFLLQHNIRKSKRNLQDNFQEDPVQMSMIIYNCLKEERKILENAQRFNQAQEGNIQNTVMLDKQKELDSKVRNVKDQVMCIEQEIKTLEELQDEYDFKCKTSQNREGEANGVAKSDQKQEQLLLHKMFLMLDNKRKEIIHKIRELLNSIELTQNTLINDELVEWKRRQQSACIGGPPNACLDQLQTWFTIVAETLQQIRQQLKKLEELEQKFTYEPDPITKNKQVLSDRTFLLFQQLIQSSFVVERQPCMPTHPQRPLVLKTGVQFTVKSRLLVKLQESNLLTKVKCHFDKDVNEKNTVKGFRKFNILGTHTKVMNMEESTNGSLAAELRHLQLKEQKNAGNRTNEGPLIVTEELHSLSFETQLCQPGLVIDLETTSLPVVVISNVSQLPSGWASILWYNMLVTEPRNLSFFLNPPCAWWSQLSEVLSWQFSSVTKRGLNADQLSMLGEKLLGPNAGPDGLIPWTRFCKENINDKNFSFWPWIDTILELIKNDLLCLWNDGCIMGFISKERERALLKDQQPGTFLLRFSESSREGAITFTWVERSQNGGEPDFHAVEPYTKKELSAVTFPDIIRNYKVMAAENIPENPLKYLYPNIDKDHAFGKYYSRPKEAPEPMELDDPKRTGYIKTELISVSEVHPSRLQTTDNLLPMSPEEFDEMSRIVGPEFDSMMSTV

[13] = target: Signal transducer and activator of transcription 3 (Mus musculus) (UniProt P42227); assay: Inhibition of STAT3 phosphorylation at Tyr705 residue in LPS-induced mouse BV-2 cells at 5 to 10 uM preincubated for 2 hrs followed by LPS addition and measured after 3 hrs by Western blot analysis; format: cell-based; conditions: dose 5-10 µM, time 5.0 hrs
Signal transducer and activator of transcription 3 (Mus musculus), sequence (P42227 whole entry): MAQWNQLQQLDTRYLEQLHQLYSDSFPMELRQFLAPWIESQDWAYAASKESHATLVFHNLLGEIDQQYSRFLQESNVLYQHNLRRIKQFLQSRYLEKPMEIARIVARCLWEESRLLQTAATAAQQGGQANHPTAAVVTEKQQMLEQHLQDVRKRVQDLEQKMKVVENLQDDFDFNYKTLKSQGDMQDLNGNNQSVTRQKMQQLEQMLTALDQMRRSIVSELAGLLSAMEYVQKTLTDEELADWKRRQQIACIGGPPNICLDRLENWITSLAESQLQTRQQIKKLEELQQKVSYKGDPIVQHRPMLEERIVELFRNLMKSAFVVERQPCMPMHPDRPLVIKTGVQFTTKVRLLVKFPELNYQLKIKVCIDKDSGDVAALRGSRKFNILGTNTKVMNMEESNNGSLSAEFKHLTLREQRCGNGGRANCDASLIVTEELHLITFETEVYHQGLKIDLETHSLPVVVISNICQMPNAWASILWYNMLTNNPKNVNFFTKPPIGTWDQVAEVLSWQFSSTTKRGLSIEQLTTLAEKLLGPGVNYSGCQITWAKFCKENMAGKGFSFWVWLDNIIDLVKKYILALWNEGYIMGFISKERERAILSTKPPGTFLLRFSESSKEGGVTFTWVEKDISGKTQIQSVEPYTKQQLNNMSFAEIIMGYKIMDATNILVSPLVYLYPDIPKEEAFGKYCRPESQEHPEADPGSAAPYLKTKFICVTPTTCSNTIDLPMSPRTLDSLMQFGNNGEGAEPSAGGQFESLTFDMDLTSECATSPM

BV-2 [14] = assay: Inhibition of LPS-induced nuclear translocation of p-STAT1 in mouse BV-2 cells at 10 uM preincubated for 2 hrs followed LPS addition and measured after 3 hrs by DAPI staining based immunofluorescence assay; format: functional, cell-based; conditions: time 5.0 hrs
BV-2 [15] = assay: Inhibition of LPS-induced nuclear translocation of p-STAT1 in mouse BV-2 cells at 10 uM preincubated for 2 hrs followed LPS addition and measured after 3 hrs by Western blot analysis; format: functional, cell-based; conditions: time 5.0 hrs
BV-2 [16] = assay: Inhibition of LPS-induced nuclear translocation of p-STAT3 in mouse BV-2 cells at 10 uM preincubated for 2 hrs followed LPS addition and measured after 3 hrs by Western blot analysis; format: functional, cell-based; conditions: time 5.0 hrs
[17] = Acute toxicity in male Kunming mouse assessed as effect on organ coefficient of heart at 250 mg/kg administered via gavage; format: organism-based; conditions: in vivo, po
[18] = Acute toxicity in male Kunming mouse assessed as effect on organ coefficient of lung at 250 mg/kg administered via gavage; format: organism-based; conditions: in vivo, po
[19] = Acute toxicity in female Kunming mouse assessed as effect on organ coefficient of heart at 250 mg/kg administered via gavage; format: organism-based; conditions: in vivo, po
[20] = Acute toxicity in female Kunming mouse assessed as effect on organ coefficient of spleen at 250 mg/kg administered via gavage; format: organism-based; conditions: in vivo, po
[21] = Acute toxicity in female Kunming mouse assessed as effect on organ coefficient of lung at 250 mg/kg administered via gavage; format: organism-based; conditions: in vivo, po
[22] = Acute toxicity in female Kunming mouse assessed as effect on organ coefficient of kidney at 250 mg/kg administered via gavage; format: organism-based; conditions: in vivo, po
[23] = Acute toxicity in female Kunming mouse assessed as effect on organ coefficient of liver at 250 mg/kg administered via gavage; format: organism-based; conditions: in vivo, po
[24] = Acute toxicity in male Kunming mouse assessed as histopathological changes in heart at 250 mg/kg administered via gavage by H and E staining based analysis; format: organism-based; conditions: in vivo, po
[25] = Acute toxicity in female Kunming mouse assessed as histopathological changes in liver at 250 mg/kg administered via gavage by H and E staining based analysis; format: organism-based; conditions: in vivo, po
[26] = Acute toxicity in female Kunming mouse assessed as histopathological changes in spleen at 250 mg/kg administered via gavage by H and E staining based analysis; format: organism-based; conditions: in vivo, po
[27] = Acute toxicity in female Kunming mouse assessed as effect on GOT level in blood at 250 mg/kg administered via gavage by biochemical analysis; format: organism-based; conditions: in vivo, po
BV-2 [28] = assay: Antiinflammatory activity in LPS induced mouse BV-2 cells assessed as NO production at 1 uM by Griess reagent based assay relative to control

In the case of `COc1c2n(cc(C(=O)Nc3cccc(-c4cn(-c5ccccc5Cl)nn4)c3)c1=O)C[C@@H]1OCC[C@@H](C)N1C2=O`, the Activity [1] is reported as “Non-toxic”, the Activity [2] is reported as “Non-toxic” and the Activity [3] is reported as “Non-toxic”. The IC50 (BV-2 [4]) was 4.45 µM, the Activity (BV-2 [5]) was “Dose-dependent-effect” and the Activity (BV-2 [6]) was “Dose-dependent-effect”. For the same compound, the Activity (BV-2 [7]) was “Dose-dependent-effect”, the Activity (BV-2 [8]) was “Dose-dependent-effect” and the Activity (BV-2 [9]) was “Active”. For the same compound, the Activity (BV-2 [10]) was “Active”, the Activity (BV-2 [11]) was “Dose-dependent-effect” and the inhibition [12] was “Active”. The inhibition [13] was “Active”, the inhibition (BV-2 [14]) was “Active” and the inhibition (BV-2 [15]) was “Active”. The inhibition (BV-2 [16]) was “Active”, the Activity [17] was “Non-toxic” and the Activity [18] was “Non-toxic”. For the same compound, the Activity [19] was “Non-toxic”, the Activity [20] was “Non-toxic” and the Activity [21] was “Non-toxic”. For the same compound, the Activity [22] was “Non-toxic”, the Activity [23] was “Non-toxic” and the Activity [24] was “Non-toxic”. The Activity [25] was “Non-toxic”, the Activity [26] was “Non-toxic” and the Activity [27] was “Non-toxic”. For the same compound, the level, % of control at 1 µM (BV-2 [28]) was 71%.

From ChEMBL document CHEMBL6153034, “Synthesis of dolutegravir derivatives modified by 1,2,3-triazole structure and their anti-inflammatory activity in LPS-induced BV2 cells” (Bioorg Med Chem Lett, 2025)
